Results taken from ChEMBL document CHEMBL4130624, “Optimization of 1,4-Oxazine β-Secretase 1 (BACE1) Inhibitors Toward a Clinical Candidate” (J Med Chem, 2018).

Key:
TK6 [1] = test: Genotoxicity in human TK6 cells up to […] after 24 hrs in absence of rat liver S9 fraction by micronucleus assay; type: toxicity, cell-based; conditions: tk6, 24 h
TK6 [2] = test: Genotoxicity in human TK6 cells at 500 ug/ml after 24 hrs in presence of rat liver S9 fraction by micronucleus assay; type: toxicity, cell-based; conditions: s9, 24 h
[3] = Drug metabolism in human liver microsomes at 1 uM after 15 mins in presence of NADPH by HPLC-MS/MS analysis; type: ADME, microsome; conditions: read-out: Drug metabolism
HepG2 = test: Cytotoxicity against human HepG2 cells assessed as effect on cell health indicators after 72 hrs by automated fluorescence microscopy based high content screening based assay; type: ADME; conditions: hepg2, 72 h
[4] = Drug metabolism in mouse liver microsomes at 1 uM after 15 mins in presence of NADPH by HPLC-MS/MS analysis; type: ADME, microsome; conditions: read-out: Drug metabolism
hERG (KCNH2) = hERG (KCNH2) (Homo sapiens, UniProt Q12809); test: Inhibition of human ERG expressed in HEK293 cells assessed as reduction in outward potassium current at 3 uM at holding potential was -80 mV after 5 mins by patch clamp assay; type: cell-based; conditions: HEK293 cells that express hERG
hERG (KCNH2), sequence (Q12809 whole entry): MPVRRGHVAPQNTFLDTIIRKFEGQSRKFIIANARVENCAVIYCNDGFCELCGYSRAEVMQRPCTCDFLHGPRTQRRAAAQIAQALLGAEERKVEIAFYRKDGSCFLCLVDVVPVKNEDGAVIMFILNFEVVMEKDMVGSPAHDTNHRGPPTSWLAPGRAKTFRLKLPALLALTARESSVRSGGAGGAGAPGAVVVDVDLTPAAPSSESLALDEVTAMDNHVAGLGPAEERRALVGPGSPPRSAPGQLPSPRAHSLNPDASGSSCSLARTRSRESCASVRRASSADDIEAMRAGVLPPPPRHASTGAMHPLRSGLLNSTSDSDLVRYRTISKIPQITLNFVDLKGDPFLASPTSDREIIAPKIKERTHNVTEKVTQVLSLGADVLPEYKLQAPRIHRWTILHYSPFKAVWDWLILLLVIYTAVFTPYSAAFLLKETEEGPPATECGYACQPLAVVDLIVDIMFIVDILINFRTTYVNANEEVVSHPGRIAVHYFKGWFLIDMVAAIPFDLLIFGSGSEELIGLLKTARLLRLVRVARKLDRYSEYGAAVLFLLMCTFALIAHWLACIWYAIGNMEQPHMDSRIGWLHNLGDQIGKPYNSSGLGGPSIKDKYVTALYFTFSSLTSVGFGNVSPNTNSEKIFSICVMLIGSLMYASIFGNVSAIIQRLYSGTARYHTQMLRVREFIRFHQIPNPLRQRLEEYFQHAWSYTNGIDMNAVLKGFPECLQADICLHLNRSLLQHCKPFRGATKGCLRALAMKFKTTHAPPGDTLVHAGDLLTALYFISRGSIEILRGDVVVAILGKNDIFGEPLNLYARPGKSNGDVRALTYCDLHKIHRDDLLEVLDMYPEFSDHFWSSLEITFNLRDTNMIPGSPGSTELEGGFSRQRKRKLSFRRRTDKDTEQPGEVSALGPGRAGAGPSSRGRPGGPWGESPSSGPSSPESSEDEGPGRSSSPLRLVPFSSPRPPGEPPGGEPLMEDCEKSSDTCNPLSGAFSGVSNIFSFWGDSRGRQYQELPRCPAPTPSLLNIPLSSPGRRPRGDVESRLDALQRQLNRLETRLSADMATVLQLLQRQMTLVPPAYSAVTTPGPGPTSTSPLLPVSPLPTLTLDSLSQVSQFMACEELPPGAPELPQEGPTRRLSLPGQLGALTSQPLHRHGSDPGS

[5] = Fraction unbound in mouse plasma at 5 uM after 4.5 hrs by HPLC-MS/MS method based rapid equilibrium dialysis; type: ADME, cell-free
Beta-secretase 1 [6] = molecular target: T1, Beta-secretase 1 (Homo sapiens, UniProt P56817); test: Inhibition of BACE1 in human SKNBE2 cells transfected with APP695 protein assessed as reduction in amyloid beta (1 to 42) levels after 18 hrs by sandwich alphalisa assay; type: cell-based
T1 sequence (P56817 whole entry, the tested form may be a part): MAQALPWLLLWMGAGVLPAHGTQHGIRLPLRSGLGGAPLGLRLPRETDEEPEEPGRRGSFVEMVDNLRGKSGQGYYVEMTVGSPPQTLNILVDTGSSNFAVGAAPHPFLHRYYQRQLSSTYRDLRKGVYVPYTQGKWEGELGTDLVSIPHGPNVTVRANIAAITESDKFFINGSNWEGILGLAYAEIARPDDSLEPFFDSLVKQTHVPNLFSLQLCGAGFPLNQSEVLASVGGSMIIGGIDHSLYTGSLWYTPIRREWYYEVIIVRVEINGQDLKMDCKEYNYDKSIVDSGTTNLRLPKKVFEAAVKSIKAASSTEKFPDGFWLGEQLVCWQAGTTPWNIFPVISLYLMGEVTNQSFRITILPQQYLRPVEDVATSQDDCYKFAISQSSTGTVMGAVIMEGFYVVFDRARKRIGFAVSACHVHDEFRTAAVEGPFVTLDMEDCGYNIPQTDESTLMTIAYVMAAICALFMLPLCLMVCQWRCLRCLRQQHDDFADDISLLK

Beta-secretase 1 [7] = molecular target: T1, Beta-secretase 1; test: Inhibition of BACE1 (1 to 454 residues) (unknown origin) using APP derived polypeptide harboring Lys-Met/Asn-Leu mutation as substrate by FRET assay
Mus musculus [8] = test: Antialzheimer activity in CD1 Swiss specific pathogen free mouse assessed as reduction in amyloid beta (1 to 40) levels at 10 mg/kg, po measured after 4 hrs post dose by ELISA; type: functional; set-up: scale not given: the % may be the effect or the level left
Mus musculus [9] = test: Antialzheimer activity in CD1 Swiss specific pathogen free mouse assessed as reduction in amyloid beta (1 to 40) levels at 10 mg/kg, po measured after 2 hrs post dose by ELISA; type: functional; set-up: scale not given: the % may be the effect or the level left
[10] = Ratio of total unbound drug level in brain to plasma of in CD1 Swiss specific pathogen free mouse at 10 mg/kg, po after 4 hrs; type: ADME, organism-based; conditions: read-out: K(p,uu,brain)
[11] = tested on: MDR1 (P-gp) (Homo sapiens); test: Apparent permeability across apical to basolateral side in pig LLC cells transfected with human MDR1 at 5 uM in absence of elacridar by LC-MS/MS analysis; conditions: LLC-PK1
[12] = Ratio of total drug level in brain to plasma of in CD1 Swiss specific pathogen free mouse at 10 mg/kg, po after 4 hrs; type: ADME, organism-based
[13] = molecular target: Voltage-gated inwardly rectifying potassium channel KCNH2 (Homo sapiens, UniProt Q12809); test: Inhibition of human ERG expressed in HEK293 cell membranes by radioligand binding assay
Voltage-gated inwardly rectifying potassium channel KCNH2, sequence (Q12809 whole entry): as the sequence (Q12809 whole entry) above

[14] = Dissociation constant, pKa of the compound at 25 degC by potentiometric titration assay; type: physicochemical
[15] = Fraction unbound in rat brain at 5 uM after 5 hrs by HPLC-MS/MS method based rapid equilibrium dialysis; type: ADME, tissue-based
[16] = Drug uptake in mouse brain at 30 mg/kg, po measured at 2 to 4 hrs; type: ADME, organism-based; conditions: in vivo
Mus musculus [17] = test: Antialzheimer activity in CD1 Swiss specific pathogen free mouse assessed as reduction in amyloid beta (1 to 40) levels at 10 mg/kg, po measured after 1 hr post dose by ELISA; type: functional; set-up: scale not given: the % may be the effect or the level left
Cavia porcellus = test: Cardiotoxicity in anesthetized guinea pigs assessed as drug level causing QTcB prolongation dosed up to 10 mg/kg, iv administered over a period of 5 min at 15 min interval by ECG analysis; type: toxicity, organism-based; conditions: guinea pig, in vivo
[18] = Cmax in anesthetized guinea pig; type: ADME, organism-based, Cavia porcellus; conditions: in vivo
Canis familiaris = test: Antialzheimer activity in po dosed Beagle dog assessed as reduction in amyloid beta (1 to 40) levels measured after 1 hr post dose by ELISA; type: functional, organism-based, Canis lupus familiaris
[19] = Drug metabolism in mouse liver hepatocytes at 1 uM after 60 mins in presence of NADPH by HPLC-MS/MS analysis; type: ADME, cell-based, Hepatocyte; conditions: read-out: Drug metabolism
[20] = Drug uptake in mouse brain at 10 mg/kg, po measured at 2 to 4 hrs; type: ADME, organism-based; conditions: in vivo
[21] = Plasma concentration in mouse at 10 mg/kg, po after 4 hrs; type: ADME, organism-based

Row | SMILES | metabolised at 0.25 h, 1 µM [3] | metabolised at 0.25 h, 1 µM [4] | IC50 (Beta-secretase 1 [6]) | IC50 (Beta-secretase 1 [7]) | inhibition at 5 min, 3 µM (hERG (KCNH2)) | IC50 [13] | further results
1 | C[C@]1(c2cc(N)ccc2F)N=C(N)CO[C@H]1C(F)(F)F |  |  |  |  |  |  | Activity (TK6 [1]): Non-Toxic; Activity (TK6 [2]): Non-Toxic
2 | COc1cnc(C(=O)Nc2ccc(F)c([C@@]3(C)N=C(N)COC3=C(F)F)c2)cn1 |  |  | 35.1 nM | 151 nM |  | > 10000 nM | fraction unbound at 4.5 h, 5 µM [5]: 0.146; Activity (Mus musculus [8]): 7%; Activity (Mus musculus [9]): 6%; Kp uu at 4 h [10]: 0.11; Papp A→B at 5 µM [11]: 8.63 ×10⁻⁶ cm/s; Kp at 4 h [12]: 0.97; pKa [14]: 7.9; fraction unbound at 5 h, 5 µM [15]: 0.017
3 | C[C@]1(c2cc(NC(=O)c3ncc(C#N)cc3F)ccc2F)N=C(N)CO[C@@H]1F | 11% | 19% | 12.2 nM | 18.4 nM | 24% | > 10000 nM | Papp A→B at 5 µM [11]: 1.05 ×10⁻⁶ cm/s; Drug uptake [16]: Not Active
4 | COc1cnc(C(=O)Nc2ccc(F)c([C@@]3(C)N=C(N)CO[C@@H]3F)c2)cn1 |  |  |  |  |  | > 10000 nM | Activity (Mus musculus [9]): 65%; Activity (Mus musculus [17]): 39%; Kp uu at 4 h [10]: 0.09; Kp at 4 h [12]: 0.6
5 | C[C@]1(c2cc(NC(=O)c3ccc(C#N)cn3)ccc2F)N=C(N)CO[C@@H]1F |  |  |  |  |  | 8000 nM | LOAEL (Cavia porcellus): 475 ng/mL; fLOAEL (Cavia porcellus): 0.55 µM; fNOAEL (Cavia porcellus): 0.2 µM; Cmax [18]: 475 ng/mL; fEC50 (Canis familiaris): 0.023 µM; metabolised at 1 h, 1 µM [19]: 0%
6 | COc1cnc(C(=O)Nc2ccc(F)c([C@@]3(C)N=C(N)CO[C@H]3C(F)(F)F)c2)cn1 | 2% | 19% |  |  | 19% | > 10000 nM | fraction unbound at 4.5 h, 5 µM [5]: 0.155; Activity (Mus musculus [8]): 29%; Activity (Mus musculus [9]): 37%; MTC (HepG2): 15.6 µM; Activity (Mus musculus [17]): 23%; Kp uu at 4 h [10]: 0.23; Papp A→B at 5 µM [11]: 13.7 ×10⁻⁶ cm/s; Kp at 4 h [12]: 1.81; pKa [14]: 7.8; fraction unbound at 5 h, 5 µM [15]: 0.02
7 | C[C@]1(c2cc(NC(=O)c3ncc(C#N)cc3Cl)ccc2F)N=C(N)CO[C@@H]1F | 1% | 0% | 15.5 nM | 10.7 nM | 19% | > 10000 nM | Drug uptake [20]: Not Active; concentration at 4 h [21]: 38 ng/mL; Papp A→B at 5 µM [11]: 3.06 ×10⁻⁶ cm/s; metabolised at 1 h, 1 µM [19]: 55%
8 | C[C@@]1(c2cc(N/C=C/c3ccc(C#N)cn3)ccc2F)COCC(N)=N1 |  |  | 251 nM | 2340 nM |  |  | 

Continued, in another order:

Row | metabolised at 0.25 h, 1 µM [3] | metabolised at 0.25 h, 1 µM [4] | IC50 (Beta-secretase 1 [6]) | IC50 (Beta-secretase 1 [7]) | SMILES | inhibition at 5 min, 3 µM (hERG (KCNH2)) | IC50 [13] | further results
9 | 0% | 48% |  |  | C[C@]1(c2cc(NC(=O)c3ccc(Cl)cn3)ccc2F)N=C(N)CO[C@H]1C(F)(F)F | 27% |  | MTC (HepG2): 13.6 µM
10 |  |  | 4500 nM | > 10000 nM | C[C@]1(c2cc(NC(=O)c3cnc(NCC(F)(F)F)cn3)ccc2F)N=C(N)CO[C@H]1C(F)(F)F |  |  | 
11 | 7% | 51% | 631 nM | 1860 nM | C[C@]1(c2cc(-c3cncnc3)ccc2F)N=C(N)CO[C@H]1C(F)(F)F (racemic) |  |  | 
12 |  |  | 49 nM | 30.2 nM | C[C@]1(c2cc(NC(=O)c3cnc(OC(F)(F)C(F)(F)F)cn3)ccc2F)N=C(N)CO[C@H]1C(F)(F)F |  |  | 
13 | 38% | 38% |  |  | C[C@]1(c2cc(NC(=O)c3ncc(C#N)cc3Cl)ccc2F)N=C(N)CO[C@H]1C(F)(F)F | 13% |  | 
14 |  |  | 115 nM | 457 nM | C[C@]1(c2cc(NC(=O)c3cnc(N4CCC4)cn3)ccc2F)N=C(N)CO[C@H]1C(F)(F)F |  |  | 
15 |  |  | 603 nM | 3020 nM | C[C@]1(c2cc(NC(=O)c3cnc(NC4CC4)cn3)ccc2F)N=C(N)CO[C@H]1C(F)(F)F |  |  | 
16 |  |  | 20.9 nM | 24.5 nM | C[C@]1(c2cc(NC(=O)c3cnc(OCC(F)(F)F)cn3)ccc2F)N=C(N)CO[C@H]1C(F)(F)F |  |  | 
17 | 56% | 59% | 12.5 nM | 40.7 nM | COCCOc1cnc(C(=O)Nc2ccc(F)c([C@@]3(C)N=C(N)CO[C@H]3C(F)(F)F)c2)cn1 |  |  | 
18 |  |  | 4.9 nM | 11.4 nM | COc1cnc(C(=O)Nc2ccc(F)c([C@@]3(C)N=C(N)CO[C@H]3C(F)F)c2)cn1 | 24% | > 10000 nM | fraction unbound at 4.5 h, 5 µM [5]: 0.279; Activity (Mus musculus [8]): 40%; Activity (Mus musculus [9]): 38%; Activity (Mus musculus [17]): 11%; Kp uu at 4 h [10]: 0.07; Papp A→B at 5 µM [11]: 4.8 ×10⁻⁶ cm/s; Kp at 4 h [12]: 0.4; pKa [14]: 8.4; fraction unbound at 5 h, 5 µM [15]: 0.047
